Data on eleven compounds can be found in patent US20250129101A1, “Compound, Pharmaceutical Composition Comprising the Same and Method for Treating Cancer Using the Same” (NATIONAL TSING HUA UNIVERSITY, priority 2023, published 2025).

The target of one data set is T1, KIF2C (Homo sapiens, UniProt Q99661).
T1 construct: KIF2C (216-598 a.a.); 6xHis (C); made in house; host or cells: E. coli BL21 (DE3), pET-28a
The experiment in a line: In vitro validation: KIF2C kinesin activity, malachite green-based phosphate colorimetric assay. The format is biochemical. The conditions noted are these: concentration that inhibits 50% of KIF2C activity. The procedure:
(§1) The in vitro validation was performed by measuring KIF2C kinesin activity using malachite green-based phosphate colorimetric assay (BioVision). […] The microtubules from porcine brain tubulin (Cytoskeleton) or purified from HEK293 cells in Free-style medium (293Fs) were dissolved in the BRB80 buffer (80 mM PIPES pH 6.8, 1 mM EGTA, 1 mM MgCl2, 1 mM GTP, 1 mM DTT, and 10% DMSO) at 37° C. for 2 hr. Phosphates released from kinesin-mediated ATP hydrolysis was measured by adding 30 μL of the phosphate colorimetric reagent (BioVision), incubated for 10 min, and then measured with absorbance at 650 nm. […] The cell validation was performed by measuring cytotoxicity in MDA-MB-231 cells. The cells were cultured in a 96-well plate at a confluence of 2000 cells/well with indicates compounds for specific days. When the time was up, the culture medium in the plate was aspirated and replaced with a prepared CellTiter-Glo reagent (Promega)/DMEM mixture (1:1 mix of CellTiter-Glo reagent and serum-supplemented DMEM). After incubation for 10 min, the luminescence was measured with an ELISA plate reader to determine the cell viability.
In vitro kinesin activity was measured using malachite green-based phosphate colorimetric assay (BioVision). […] The microtubules from porcine brain tubulin (Cytoskeleton) or purified from HEK293 cells in Free-style medium (293Fs) were dissolved in the BRB80 buffer (80 mM PIPES pH 6.8, 1 mM EGTA, 1 mM MgCl2, 1 mM GTP, 1 mM DTT, and 10% DMSO) at 37° C. for 2 hr. Phosphates released from kinesin-mediated ATP hydrolysis was measured by adding 30 μL of the phosphate colorimetric reagent (BioVision), incubated for 10 min, and then measured with absorbance at 650 nm.
Constructs of sN+M regions of KIF2C (216-598 a.a.), KIF2A (181-562 a.a.) and KIF2B (171-553 a.a.) with C-terminal 6×His tag were subcloned into pET-28a vector and expressed in BL21 (DE3) E. coli cells (Novartis) cultured in Luria-Bertani medium supplemented with 50 ug/mL kanamycin at 37° C. After induction with 0.8 mM IPTG for 18 hr at 20° C., the cells were pelleted by centrifugation at 6000 rpm for 30 min at 10° C. The collected pellets were resuspended in 30 mL of buffer A (20 mM Tris-HCl pH 7.5, 500 mM NaCl, 10 mM imidazole, 1% CHAPS, and 1 mM PMSF) and next subjected to a high-pressure homogenizer (EmulsiFlex-C3) for cell lysis. After removing the cell debris by centrifugation at 13000 rpm for 30 min at 10° C., the recombinant Kinesin-13 in the supernatant was purified using nickel affinity chromatography. Firstly, the supernatant was applied to the Ni-NTA column (GE Healthcare) pre-equilibrated with buffer A. Secondly, the column was washed with 10× column volumes of buffer A to remove the unwanted proteins. The washed column was then eluted with 10× column volumes of buffer containing increasing concentrations of imidazole (40, 100, 300, 1000 mM), and the majority of the recombinant Kinesin-13 protein was eventually obtained in a fraction of 300 mM imidazole. The fractions containing the recombinant Kinesin-13 were subsequently concentrated in the buffer B (20 mM Tris-HCl pH 7.5, 10 mM imidazole, 50 mM NaCl, 2 mM DTT) using an Amicon® Ultra filter (Millipore) and subjected to cation exchange column (Capto S, GE Healthcare) for further purification. The recombinant Kinesin-13 was then eluted in elution buffer (20 mM Tris-HCl pH 7.5 and 2 mM DTT) containing 400 mM of NaCl and stored at −80° C. for long-term storage.

The test system of the next data set is MDA-MB-231 cells. Kind of data set: Cell validation: cytotoxicity in MDA-MB-231 cells (CellTiter-Glo). The class given is cell-based. The conditions noted are these: for IC50: Homo sapiens; for IC50 / Cell validation (IC50): cytotoxicity in MDA-MB-231 cells. The procedure: as §1
The cancer cells were cultured in a 96-well plate at a confluence of 1000-2000 cells/well with indicated drugs for specific days. When the time was up, the culture medium in the plate was aspirated and replaced with a prepared CellTiter-Glo reagent/DMEM mixture (1:1 mix of CellTiter-Glo reagent and serum-supplemented DMEM). After incubation for 10 min, the luminescence (proportional to the number of living cells) was measured with an ELISA plate reader to determine the cell viability.

The structures appear in SMILES notation.

T1 sequence (Q99661 216-598): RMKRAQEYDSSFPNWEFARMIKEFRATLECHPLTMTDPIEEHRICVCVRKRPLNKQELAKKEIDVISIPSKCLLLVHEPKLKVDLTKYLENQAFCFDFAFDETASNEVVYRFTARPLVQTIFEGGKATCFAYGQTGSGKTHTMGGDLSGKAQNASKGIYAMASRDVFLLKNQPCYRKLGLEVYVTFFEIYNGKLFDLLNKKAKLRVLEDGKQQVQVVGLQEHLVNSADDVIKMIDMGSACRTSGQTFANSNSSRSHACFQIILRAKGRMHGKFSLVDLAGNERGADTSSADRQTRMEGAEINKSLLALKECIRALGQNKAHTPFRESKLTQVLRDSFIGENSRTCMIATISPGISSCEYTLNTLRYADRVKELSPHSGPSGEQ

Consider `CC1=C(C(=O)OC(C)C)C(c2ccc(Cl)cc2)n2c(s/c(=C\c3ccc(OCC(=O)NS(=O)(=O)C(F)(F)F)cc3)c2=O)=N1` (centres unmarked) [56S0 (121), isopropyl (Z)-5-(4-chlorophenyl)-7-methyl-3-oxo-2-(4-(2-oxo-2-((trifluoromethyl)sulfonamido)ethoxy)benzylidene)-2,3-dihydro-5H-thiazolo[3,2-a]pyrimidine-6-carboxylate], for which the EC50 at KIF2C is above 100 µM. This compound returned an IC50 in the data set with MDA-MB-231 cells above 50 µM.
Take `CCOC(=O)C1=C(C)N=c2s/c(=C\c3ccc(OCC(=O)OC)cc3)c(=O)n2[C@H]1c1ccc(Cl)cc1` [45S0 (129)]: on KIF2C, the EC50 is above 100 µM. This compound gave an IC50 in the data set on MDA-MB-231 cells above 50 µM.
For `CC1=C(C(=O)OC(C)C)C(c2ccc(F)cc2)n2c(s/c(=C\c3ccc(OCC(=O)O)cc3)c2=O)=N1` (centres unmarked) [9S0 (32), (4-(((2Z)-5-(4-fluorophenyl)-7-methyl-3-oxo-6-((propan-2-yloxy)carbonyl)-5H-[1,3]thiazolo[3,2-a]pyrimidin-2(3H)-ylidene)methyl)phenoxy)acetic acid], the EC50 at KIF2C was below 50 µM. In the data set on MDA-MB-231 cells, this compound displayed an IC50 above 50 µM.
As for `CC1=C(C(=O)OC(C)C)C(c2ccc(Cl)cc2)n2c(s/c(=C\c3ccc(OCC(=O)N4CCN(C(C)C)CC4)cc3)c2=O)=N1` (centres unmarked) [11S0 (16), isopropyl (Z)-5-(4-chlorophenyl)-2-(4-(2-(4-isopropylpiperazin-1-yl)-2-oxoethoxy)benzylidene)-7-methyl-3-oxo-2,3-dihydro-5H-thiazolo[3,2-a]pyrimidine-6-carboxylate], the EC50 on KIF2C was above 100 µM. Moreover, the “Cell validation (IC50)” value in the data set with MDA-MB-231 cells was “+ +”.
`CCOC(=O)C1=C(C)N=c2s/c(=C\c3ccc(OCC(=O)OC)cc3)c(=O)n2[C@@H]1c1ccc(Cl)cc1` [44S0 (128)] returned an EC50 on KIF2C above 100 µM. The IC50 with MDA-MB-231 cells is above 50 µM.
`CCN1CCN(C(=O)COc2ccc(/C=c3\sc4n(c3=O)C(c3ccc(N(C)C)cc3)C(C(=O)OC(C)(C)C)=C(C)N=4)cc2)CC1` (centres unmarked) [Compound 148] had an EC50 at KIF2C below 50 µM. Besides, the “Cell validation (IC50)” value with MDA-MB-231 cells was “+ +”.
`CC1=C(C(=O)OC(C)C)C(c2ccc(Cl)cc2)n2c(s/c(=C\c3ccc(OCC(=O)N4CCN(C)CC4)cc3)c2=O)=N1` (centres unmarked) [6S0 (13), propan-2-yl (2Z)-5-(4-chlorophenyl)-7-methyl-2-(4-(2-(4-methylpiperazin-1-yl)-2-oxoethoxy)benzylidene)-3-oxo-2,3-dihydro-5H-[1,3]thiazolo[3,2-a]pyrimidine-6-carboxylate] displayed an EC50 on KIF2C of 50 to 100 µM. Moreover, the “cytotoxicity on MDA-MB-231 cells (in words)” value in the data set on MDA-MB-231 cells (72 hr) is reported as “showed cytotoxicity”. Moreover, the “Cell validation (IC50)” value with MDA-MB-231 cells is “+ +”.
On KIF2C, `CC1=C(C(=O)OC(C)(C)C)C(c2ccc(N(C)C)cc2)n2c(s/c(=C\c3ccc(OCC(=O)N4CCN(C)CC4)cc3)c2=O)=N1` (centres unmarked) [Compound 144] came in with an EC50 of 50 to 100 µM. The same compound had an IC50 with MDA-MB-231 cells of 20 to 50 µM.
For the compound `CC1=C(C(=O)OC(C)C)C(c2ccc(-n3ccnc3)cc2)n2c(s/c(=C\c3ccc(OCC(=O)O)cc3)c2=O)=N1` (centres unmarked) [52S0 (45), (Z)-2-(4-((5-(4-(1H-imidazol-1-yl)phenyl)-6-(isopropoxycarbonyl)-7-methyl-3-oxo-5H-thiazolo[3,2-a]pyrimidin-2(3H)-ylidene)methyl)phenoxy)acetic acid], the EC50 at KIF2C was above 100 µM. The compound further came in with an IC50 in the data set with MDA-MB-231 cells above 50 µM.
At KIF2C, `CC1=C(C(=O)OC(C)C)C(c2ccc(Cl)cc2)n2c(s/c(=C\c3ccc(OCC#N)cc3)c2=O)=N1` (centres unmarked) [38S0 (117), isopropyl (Z)-5-(4-chlorophenyl)-2-(4-(cyanomethoxy)benzylidene)-7-methyl-3-oxo-2,3-dihydro-5H-thiazolo[3,2-a]pyrimidine-6-carboxylate] had an EC50 above 100 µM. In the data set with MDA-MB-231 cells, this compound yielded an IC50 above 50 µM.
The compound `CCN1CCN(C(=O)COc2ccc(/C=c3\sc4n(c3=O)C(c3ccc(C)cc3)C(C(=O)OC(C)C)=C(C)N=4)cc2)CC1` (centres unmarked) [18S0 (51), isopropyl (Z)-2-(4-(2-(4-ethylpiperazin-1-yl)-2-oxoethoxy)benzylidene)-7-methyl-3-oxo-5-(p-tolyl)-2,3-dihydro-5H-thiazolo[3,2-a]pyrimidine-6-carboxylate] showed an EC50 at KIF2C of 50 to 100 µM. Moreover, the “Cell validation (IC50)” value with MDA-MB-231 cells is “+ +”.
